Experimental data reported in patent US20030022826A1, “Use of synthetic peptides to induce tolerance to pathogenic T and B cell epitopes of autoantigens or infectious agents” (priority 1987, published 2003).

Key:
[1] = test system: circulating chimpanzee T, B or NK cell populations; test: Absolute numbers of lymphocytes and lymphocyte subsets by flow cytometry during immunization; format: in vivo; settings: for B cells, % Change / T cells, % Change / Total Lymphocytes, % Change / NK cells, % Change: before vs during immunization; for average drop of T cell levels: during the immunization period; for B cells, During / NK cells, During / T cells, During / Total Lymphocytes, During: mean, months 2-14 of immunization, n = 11
Description: Flow Cytometry: Chimpanzee PB mononuclear cells were studied by standard flow cytometry methods using a flow cytometer (751; Coulter Electronics, Inc., Hialeah, Fla.). PB lymphocytes were identified by the following markers; total T cells, CD3; T cell subunits, CD4 and CD8; B cells, CD19; and NK cells, CD56 and CD16.

PHA = test: PBMC proliferative responses to PHA in immunized chimpanzees; format: in vivo, chimpanzee; settings: animals 1045 and 1070; throughout the immunization period
Description: Acpm=experimental cpm—control cpm.

[2] = DSP cross-linking and SDS-PAGE analysis of peptide complexes; format: physicochemical; settings: DSP cross-linking in the presence of Triton-X 100 1%
Description: Lanes D,E,F, and G show the effect on peptide MW when the peptide is cross-linked with 6.25 μg (D), 12.5 μg (E), 25 μg (F) and 50 μg (G) of DSP prior to SDS-PAGE. […] At present, the nature of the two bands in this peptide under reducing conditions is unknown; these two bands can be purified by cutting the bands out of preparative gels and can be analyzed by mass spectroscopy and sequenced. Lanes A and B show the results of crosslinking F-T1-SP10IIIB(A) peptide in the presence to Triton-X 100 1% and run under reducing (A) and non-reducing conditions (B).

With `CC[C@H](C)[C@H](NC(=O)[C@@H](NC(=O)[C@@H](NC(=O)[C@H](Cc1ccccc1)NC(=O)[C@H](C)NC(=O)[C@H](CCCNC(=N)N)NC(=O)CNC(=O)[C@@H]1CCCN1C(=O)CNC(=O)[C@H](CCCNC(=N)N)NC(=O)[C@H](CCC(N)=O)NC(=O)[C@@H](NC(=O)[C@H](CCCNC(=N)N)NC(=O)[C@@H](NC(=O)[C@H](CO)NC(=O)[C@H](CCCCN)NC(=O)[C@H](CCCNC(=N)N)NC(=O)[C@@H](NC(=O)[C@H](CC(N)=O)NC(=O)[C@H](CC(N)=O)NC(=O)[C@H](CC(N)=O)NC(=O)[C@@H]1CCCN1C(=O)[C@H](CCCNC(=N)N)NC(=O)[C@@H](NC(=O)[C@H](CS)NC(=O)[C@H](C)NC(=O)[C@H](Cc1ccc(O)cc1)NC(=O)[C@H](CCSC)NC(=O)[C@H](C)NC(=O)[C@H](CCCCN)NC(=O)CNC(=O)[C@@H](NC(=O)[C@H](CCC(=O)O)NC(=O)[C@H](CCC(N)=O)NC(=O)[C@H](Cc1c[nH]c2ccccc12)NC(=O)[C@H](CCSC)NC(=O)[C@H](CC(N)=O)NC(=O)[C@@H](NC(=O)[C@@H](NC(=O)[C@H](CCC(N)=O)NC(=O)[C@H](CCCCN)NC(=O)[C@H](CC(C)C)NC(=O)[C@H](Cc1ccccc1)NC(=O)CNC(=O)[C@H](CC(C)C)NC(=O)[C@H](Cc1ccccc1)NC(=O)[C@H](CC(C)C)NC(=O)[C@H](C)NC(=O)CNC(=O)[C@@H](NC(=O)CNC(=O)[C@@H](NC(=O)[C@H](C)N)C(C)C)[C@@H](C)CC)[C@@H](C)CC)[C@@H](C)CC)C(C)C)[C@@H](C)O)[C@@H](C)O)[C@@H](C)CC)[C@@H](C)CC)C(C)C)[C@@H](C)O)C(=O)O` [F-T1-SP10IIIB(A)] the lymphocyte count ([1]; animal 1045, week 12) was 650 /mm^3, the “B cells, % Change” value ([1]; chimpanzee 1045, § p > .005) was −40%§ and the “T cells, % Change” value ([1]; chimpanzee 1045, † p > .001) was −59%†. The “Total Lymphocytes, % Change” value ([1]; chimpanzee 1045, † p > .001) was −55%†, the “NK cells, % Change” value ([1]; chimpanzee 1045, ‡ p > .02) was −45%‡ and the “average drop of T cell levels” value ([1]; chimpanzee 1045, p>0.001 as printed) was 59%. For the same compound, the “B cells, During” value ([1]; chimpanzee 1045) was 175 Cells/mm^3, the “NK cells, During” value ([1]; chimpanzee 1045) was 61 Cells/mm^3 and the “T cells, During” value ([1]; chimpanzee 1045) was 1012 Cells/mm^3. The “Total Lymphocytes, During” value ([1]; chimpanzee 1045) was 1426 Cells/mm^3, the “B cells, % Change” value ([1]; chimpanzee 1070) was −23% and the “NK cells, % Change” value ([1]; chimpanzee 1070) was −36%. The “Total Lymphocytes, % Change” value ([1]; chimpanzee 1070) was −30%, the “T cells, % Change” value ([1]; chimpanzee 1070, ‡ p > .02) was −44%‡ and the “average drop of T cell levels” value ([1]; chimpanzee 1070, p>0.02 as printed) was 44%. The “B cells, During” value ([1]; chimpanzee 1070) was 232 Cells/mm^3, the “NK cells, During” value ([1]; chimpanzee 1070) was 306 Cells/mm^3 and the “T cells, During” value ([1]; chimpanzee 1070) was 1887 Cells/mm^3. The “Total Lymphocytes, During” value ([1]; chimpanzee 1070) was 2768 Cells/mm^3, the “effect on circulating lymphocyte levels” value ([1]; chimpanzees, F-derivatized peptide in 1045 and 1070, Th-B in 884 and 1028) was “induced decreases in absolute levels of circulating T cells” and the “PBMC PHA responses” value (PHA) was “normal”. For the same compound, the “stability of high MW complexes to detergent” value [2] was “resistant to disruption by this detergent”.
